Assay results reported in patent US20070015725A1, “2-azapurine compounds and their uses” (Roche Diagnostics, GMBH, priority 1999, published 2007).
In the oligonucleotide strings, read from the 5' end, every base follows the letter of its sugar. An asterisk marks phosphorothioate; unmarked linkages are phosphodiester. Other units and linkages are bracketed, terminal groups are in braces. A string of capitals states the bases alone. [z2A] = 2-aza-2'-deoxyadenosine; d = 2'-deoxy (DNA)

Key:
oligonucleotide duplexes = assay: Tm values and thermodynamic parameters of duplex formation (absorbance vs. temperature melting curves); type: binding; details: for Tm / ΔG / ΔH / ΔS: 10 mM Na-cacodylate, 100 mM NaCl, 10 mM MgCl2, pH 7; for Tm: 5 μM single strand concentration; for ΔG: duplex formation (ΔG°298); for ΔG / ΔH / ΔS: 5 μM single strand, MeltWin 3.0; for ΔH / ΔS: duplex formation
Method: Determination of melting curves and thermodynamics: Absorbance vs. temperature profiles were measured on Cary 1 or 1E spectrophotometers (Varian, Australia) with a Cary thermoelectrical controller. […] 3.0. Circular dichroism (CD) spectra were recorded on a Jasco 600 (Jasco, Japan) spectropolarimeter, a thermostatically controlled bath (Lauda RCS-6) in a 1-cm cuvette.

natural nucleobases = details: cited from earlier work

Molecule | Tm (oligonucleotide duplexes) [°C] | ΔG (oligonucleotide duplexes) [kcal/mol] | ΔH (oligonucleotide duplexes) [kcal/mol] | ΔS (oligonucleotide duplexes) [cal/K mol] | further results
5′-d(TAGGTC6ATACT) 3′-d(ATCCAGTTATGA): duplex SEQ ID NO: 3 with SEQ ID NO: 2; 6: z^2Ad; one z^2Ad-dT pair (chain 1 TAGGTCAATACT; chain 1: DNA, [z2A] at 7, backbone not given here; chain 2: unmodified DNA) | 42 | -9.2 | -85 | −245 | 
5′-d(TAGGTC66TACT) 3′-d(ATCCAGGGATGA): duplex SEQ ID NO: 5 with SEQ ID NO: 8; 6: z^2Ad; two z^2Ad-dG pairs (chain 1 TAGGTCNNTACT; z2Ad modified nucleosides; modified_base (7)..(8) n = 2-Aza 2′-deoxyadenosine) | 46 | -10.1 | -74 | −206 | 
5′-d(TAGGTC66TACT) 3′-d(ATCCAGCCATGA): duplex SEQ ID NO: 5 with SEQ ID NO: 7; 6: z^2Ad; two z^2Ad-dC pairs (chain 1 TAGGTCNNTACT; z2Ad modified nucleosides; modified_base (7)..(8) n = 2-Aza 2′-deoxyadenosine) | 20 | -5.5 | -41 | −113 | 
CC(C)CN(C=Nc1nnnc2c1ncn2[C@H]1C[C@H](O)[C@@H](CO)O1)CC(C)C [Compound 9b, 7-(2-Deoxy-β-D-erythro-pentofuranosyl)-4-{[(di-isobutylamino)methylidene]-amino}-7H-imidazo[4,5-d][1,2,3]-triazine] |  |  |  |  | melting point: 138 to 140 °C
5′-d(TAGGTCAATACT) 3′-d(ATCCAGTTATGA): unmodified standard duplex, SEQ ID NO: 1 with SEQ ID NO: 2 (= SEQ ID NO: 10) (listed as DNA, chemistry not fully specified; one strand is listed 3' to 5') [reference compound] | 46 | -10.4 | -82 | −230 | Tm (oligonucleotide duplexes; listed as 5′-d(TAGGTCAATACT) 5′-d(AGTATTGACCTA)): 47 °C
5′-d(TAGGTCGGTACT) 3′-d(ATCCAGCCATGA): unmodified duplex SEQ ID NO: 9 with SEQ ID NO: 7; two G-C pairs (listed as DNA, chemistry not fully specified; one strand is listed 3' to 5') [reference compound] | 54 |  |  |  | 
OC[C@H]1O[C@@H](N2CNc3c2nnn2ccnc32)C[C@@H]1O [Compound 7, 3-(2-Deoxy-β-D-erythro-pentofuranosyl)-1H-diimidazo[1,2-c:4′,5′-e][1,2,3]-triazine] |  |  |  |  | melting point: 151 to 152 °C (dec.)
5′-d(TAGGTC66TACT) 3′-d(ATCCAGAAATGA): duplex SEQ ID NO: 5 with SEQ ID NO: 6; 6: z^2Ad; two z^2Ad-dA pairs (chain 1 TAGGTCNNTACT; z2Ad modified nucleosides; modified_base (7)..(8) n = 2-Aza 2′-deoxyadenosine) | 25 | -5.7 | -49 | −141 | 
5′-d(TAGGTCAATACT) 3′-d(ATCCAGGGATGA): unmodified duplex SEQ ID NO: 1 with SEQ ID NO: 8; two dA-dG mismatches (unmodified DNA) [reference compound] | 36 | -7.4 | -47 | −127 | 
Nc1nnnc2c1ncn2[C@H]1C[C@H](O)[C@@H](CO)O1 [Compound 2, 4-Amino-7-(2-deoxy-β-D-erythro-pentofuranosyl)-7H-imidazo[4,5-d][1,2,3]-triazine] |  |  |  |  | base pairing with 2′-deoxyguanosine (dG) (oligonucleotide duplexes): specifically stable base pairs; base pairing with dT, dC and dA (oligonucleotide duplexes): much less stable base pairs
O=c1[nH]nnc2c1ncn2[C@H]1C[C@H](O)[C@@H](CO)O1 [Compound 3, 7-(2-deoxy-β-D-erythro-pentofuranosyl)-7H-imidazo[4,5-d][1,2,3]-triazin-4-one] |  |  |  |  | stability of the base pair I^Az/G, less than the base pair A/T (natural nucleobases): 9 °; stability of the base pair I^Az/G, less than the regular base pair C/G (natural nucleobases): 13 °
5′-d(TAGGTC6ATACT) 3′-d(ATCCAGGTATGA): duplex SEQ ID NO: 3 with SEQ ID NO: 4; 6: z^2Ad; one z^2Ad-dG pair (chain 1 dTdAdGdGdTdCd[z2A]dAdTdAdCdT; chain 2: unmodified DNA) | 46 | -9.9 | -83 | −236 | 
CCCCN(C=Nc1nnnc2c1ncn2[C@H]1C[C@H](O)[C@@H](CO)O1)CCCC [Compound 9c, 7-(2-Deoxy-β-D-erythro-pentofuranosyl)-4-{[(di-n-butylamino)methylidene]-amino}-7H-imidazo[4,5-d][1,2,3]-triazine] |  |  |  |  | melting point: 107 to 109 °C
5′-d(TAGGTC66TACT) 3′-d(ATCCAGTTATGA): duplex SEQ ID NO: 5 with SEQ ID NO: 2; 6: z^2Ad; two z^2Ad-dT pairs (chain 1 dTdAdGdGdTdCd[z2A]d[z2A]dTdAdCdT; chain 2: unmodified DNA) | 37 | -7.7 | -76 | −219 | 
